The text below walks through data of ChEMBL document CHEMBL1124404, “Conformationally restricted and conformationally defined tyramine analogues as inhibitors of phenylethanolamine N-methyltransferase” (J Med Chem, 1989).

Bounds are passed on as bounds.

By Ki is commonly meant a dissociation constant, usually derived from enzyme kinetics or from competition with a known ligand. High values mean weaker binding, low ones tighter binding.

The target of the first experiment is T1, Phenylethanolamine N-methyltransferase (Bos taurus, UniProt P10938).
T1 sequence (P10938 whole entry): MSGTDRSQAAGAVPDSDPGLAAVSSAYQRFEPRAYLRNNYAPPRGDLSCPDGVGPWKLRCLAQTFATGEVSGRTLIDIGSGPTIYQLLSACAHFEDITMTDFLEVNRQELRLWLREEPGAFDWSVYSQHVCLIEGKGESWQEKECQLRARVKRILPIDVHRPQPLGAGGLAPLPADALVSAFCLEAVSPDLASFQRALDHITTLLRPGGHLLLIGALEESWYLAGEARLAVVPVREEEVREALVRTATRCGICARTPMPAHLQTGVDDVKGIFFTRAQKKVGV
Kind of experiment: In vitro inhibitory activity against Phenylethanolamine N-methyl-transferase (PNMT).
Take `NC1CCc2ccc(O)cc2C1` (stereo unspecified): the Ki came to 76 µM.

For another experiment, the target named is T1, Phenylethanolamine N-methyltransferase. The experiment can be described thus: The compound was tested for In vitro inhibitory activity against Phenylethanolamine N-Methyltransferase (PNMT).
As to `NCCc1ccc(O)cc1` [TYRAMINE], the Ki stood at 294 µM.
Still for that read-out and setting: the same measure for `NCCc1cccc(O)c1`: 1250 µM.

Another experiment shares this target. The experiment can be described thus: In vitro inhibitory activity against bovine phenylethanolamine N-methyl-transferase.
`COc1cccc2c1C1CC(N)C2C1` (stereo unspecified) yielded a Ki greater than 2000 µM.
The same measure, in the same setting: the same measure for `COc1ccc2c(c1)CCC(N)C2` (stereo unspecified): 34 µM; for `COc1ccc2c(c1)CC1(N)CCC2C1` (stereo unspecified): 1410 µM.
Turning to `COc1ccc2c(c1)C1CCC(N)(C2)C1` (stereo unspecified), the affinity corresponds to a Ki of 389 µM. Against the preceding compound, the Ki is about 3.6-fold lower.
On the same count and under the same terms, the same measure for `COc1cccc2c1C1CCC(N)(C2)C1` (stereo unspecified): 8420 µM; for `COc1cccc2c1CC(N)CC2` (stereo unspecified): 144 µM; for `NC1CC2CC1c1ccccc12` (stereo unspecified): 479 µM.
The same measure, in the same setting: the same measure for `NC1CCc2c(O)cccc2C1` (stereo unspecified): 21 µM.
The same measure, in the same setting: under `NC1CC2CC1c1ccc(O)cc12` (stereo unspecified) stands 304 µM.
In the case of `N[C@@H]1CC2CC1c1c(O)cccc12` (stereo partly specified), the Ki is greater than 3000 µM.
Same read-out and setting: the same measure for `NC12CCC(C1)c1ccc(O)cc1C2` (stereo unspecified): 1270 µM.
`COc1cccc2c1CCC(N)C2` (stereo unspecified): the Ki turned out to be 157 µM.
Same read-out and setting: the same measure for `NC1CCc2cccc(O)c2C1` (stereo unspecified): 39 µM; for `NC12CCC(C1)c1cc(O)ccc1C2` (stereo unspecified): 111 µM; for `COc1ccc2c(c1)CC(N)CC2` (stereo unspecified): 228 µM.
On the same count and under the same terms, the same measure for `NC12CCC(C1)c1ccccc1C2` (stereo unspecified): 206 µM.
The compound `NC1CC2CC1c1cccc(O)c12` (stereo unspecified) displayed an inhibition constant Ki greater than 10000 µM.
The same measure, in the same setting: the same measure for `NCCc1ccccc1` [PHENETHYLAMINE]: 854 µM; for `NC1CCc2cc(O)ccc2C1` (stereo unspecified): 4.7 µM.
The same measure, in the same setting: under `NC12CCC(C1)c1c(O)cccc1C2` (stereo unspecified) stands 3470 µM; under `COc1cccc2c1C1CC2CC1N` (stereo unspecified), greater than 2000 µM; under `NC1CCc2ccccc2C1` (stereo unspecified), 6.8 µM.
The same measure, in the same setting: under `COc1ccc2c(c1)C1CC2CC1N` (stereo unspecified) stands greater than 2000 µM.
